Measurements reported in patent US10696648B2, “Inhibitors of indoleamine 2,3-dioxygenase and methods of their use” (BRISTOL-MYERS SQUIBB COMPANY, priority 2016, dated 2020).

Biological target: T1, human IDO1 (Homo sapiens, UniProt P14902)
T1 construct: expressed in transfected cells
Experiment: HEK293 cells stably expressing human IDO1, IDO inhibition assay (kynurenine, Ehrlich reagent)
Assay type: cell-based
Conditions: 20 hours incubation, absorbance at 490 nm, read-out: HEK Human IDO-1 Bio Activity (IDO IC50)
Experimental: HEK293 cells were transfected with a pCDNA-based mammalian expression vector harboring human IDO1 cDNA (NM 002164.2) by electroporation. They were cultured in medium (DMEM with 10% FBS) containing 1 mg/ml G418 for two weeks. Clones of HEK293 cells that stably expressed human IDO1 protein were selected and expanded for IDO inhibition assay. The human IDO1/HEK293 cells were seeded at 10,000 cells per 50 μL per well with RPMI/phenol red free media contains 10% FBS in a 384-well black wall clear bottom tissue culture plate (Matrix Technologies LLC) 100 nL of certain concentration of compound was then added to each well using ECHO liquid handling systems. The cells were incubated for 20 hours in 37° C. incubator with 5% CO2. The compound treatments were stopped by adding trichloroacetic acid (Sigma-Aldrich) to a final concentration at 0.2%. The cell plate was further incubated at 50° C. for 30 minute. The equal volume supernatant (20 μL) and 0.2% (w/v) Ehrlich reagent (4-dimethylaminobenzaldehyde, Sigma-Aldrich) in glacial acetic acid were mixed in a new clear bottom 384-well plate. This plate was then incubated at room temperature for 30 minute. The absorbance at 490 nm was measured on Envision plate reader. Compound IC50 values were calculated using the counts of 500 nM of a reference standard treatment as one hundred percent inhibition, and counts of no compound but DMSO treatment as zero percent inhibition.

T1 sequence (P14902 whole entry): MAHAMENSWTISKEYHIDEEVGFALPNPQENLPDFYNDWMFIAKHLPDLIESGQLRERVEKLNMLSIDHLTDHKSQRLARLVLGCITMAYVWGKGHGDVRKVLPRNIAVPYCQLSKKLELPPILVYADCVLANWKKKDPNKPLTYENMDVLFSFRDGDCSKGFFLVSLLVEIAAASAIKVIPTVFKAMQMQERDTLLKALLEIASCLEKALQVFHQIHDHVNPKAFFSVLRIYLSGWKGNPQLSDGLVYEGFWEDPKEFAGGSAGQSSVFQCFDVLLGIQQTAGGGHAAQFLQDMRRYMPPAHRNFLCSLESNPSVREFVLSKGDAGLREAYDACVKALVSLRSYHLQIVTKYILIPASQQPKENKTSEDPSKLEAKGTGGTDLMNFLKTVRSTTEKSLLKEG

IC50 [µM]	Structure (SMILES)
< 1	C[C@H](NC(=O)N[C@H]1CC[C@@H](c2ccnc3ccc(F)cc32)CC1)c1ccc(Cl)cc1 [Example 35, 1-((S)-1-(4-chlorophenyl)ethyl)-3-((1s,4R)-4-(6-fluoroquinolin-4-yl)cyclohexyl)urea]
< 1	CCN(C(=O)Nc1ccc(Cl)cc1)[C@H]1CC[C@@H](c2ccnc3ccc(F)cc32)CC1 [Example 17, 3-(4-chlorophenyl)-1-ethyl-1-(cis-4-(6-fluoroquinolin-4-yl)cyclohexyl)urea]
< 1	C[C@H](NC(=O)N[C@H]1CC[C@H](c2ccnc3ccc(F)cc32)CC1)c1ccc(Cl)cc1 [Example 34, 1-((S)-1-(4-chlorophenyl)ethyl)-3-((1r,4S)-4-(6-fluoroquinolin-4-yl)cyclohexyl)urea]
< 10	N#Cc1ccc(NC(=O)N(Cc2ccccc2)[C@H]2CC[C@H](c3ccnc4ccc(F)cc43)CC2)cc1 [Example 22, 1-benzyl-3-(4-cyanophenyl)-1-(trans-4-(6-fluoroquinolin-4-yl)cyclohexyl)urea]
